# Test results as given in ChEMBL document CHEMBL4706474, “Tetrahydro-2-naphthyl and 2-Indanyl Triazolopyrimidines Targeting Plasmodium falciparum Dihydroorotate Dehydrogenase Display Potent and Selective Antimalarial Activity” (J Med Chem, 2016).
# Tests used:
# [1] = test system: Plasmodium falciparum; experiment: Antiplasmodial activity against Plasmodium falciparum 3D7 infected in po dosed NSG mouse assessed as reduction in parasitemia administered twice daily for 4 consecutive days starting from day 3 post-infection and measured 24 hrs post last dose by flow cytometric analysis; type: functional; settings: 3D7, po, 96 h, time 4 day
# [2] = test system: Plasmodium falciparum; experiment: Antiplasmodial activity against Plasmodium falciparum 3D7 infected in po dosed NSG mouse assessed as blood AUC level require to show 90% reduction in parasitemia administered once daily for 4 consecutive days starting from day 3 post-infection and measured 24 hrs post last dose by flow cytometric analysis; type: functional, organism-based; settings: time 4.0 day
# [3] = test system: Plasmodium falciparum; experiment: Antiplasmodial activity against Plasmodium falciparum 3D7 infected in RBC assessed as reduction in parasitemia incubated for 72 hrs by SYBR green dye-based assay; type: functional, organism-based
# [4] = Inhibition of N-terminal His6-tagged Plasmodium falciparum DHODH expressed in Escherichia coli BL21 using L-DHO as substrate and CoQ as co-substrate by DCIP dye based spectrophotometric assay
# [5] = Intrinsic clearance in mouse liver microsomes at 1 uM by LC-MS analysis; type: ADME, Microsome
# [6] = Inhibition of N-terminal His6-tagged Plasmodium vivax DHODH expressed in Escherichia coli BL21 using L-DHO as substrate and CoQ as co-substrate by DCIP dye based spectrophotometric assay
# [7] = Kinetic solubility of compound in phosphate buffer at pH 6.5 measured after 30 mins by HPLC-UV based analysis; type: physicochemical; settings: for solubility kinetic at 0.5 h: phosphate buffer, pH 6.5, read-out: Kinetic_solubility
# [8] = Intrinsic clearance in human pooled liver microsomes assessed per mg protein at 1 uM by LC-MS analysis; type: ADME, Microsome; settings: microsomes, 1 µM
# [9] = Intrinsic clearance in rat liver microsomes assessed per mg protein at 1 uM by LC-MS analysis; type: ADME, Microsome; settings: microsomes, 1 µM
# [10] = target: Dihydroorotate dehydrogenase (quinone), mitochondrial (Homo sapiens, UniProt Q02127); experiment: Inhibition of N-terminal His6-tagged human DHODH expressed in Escherichia coli BL21 using L-DHO as substrate and CoQ as co-substrate by DCIP dye based spectrophotometric assay
# Dihydroorotate dehydrogenase (quinone), mitochondrial, sequence (Q02127 whole entry): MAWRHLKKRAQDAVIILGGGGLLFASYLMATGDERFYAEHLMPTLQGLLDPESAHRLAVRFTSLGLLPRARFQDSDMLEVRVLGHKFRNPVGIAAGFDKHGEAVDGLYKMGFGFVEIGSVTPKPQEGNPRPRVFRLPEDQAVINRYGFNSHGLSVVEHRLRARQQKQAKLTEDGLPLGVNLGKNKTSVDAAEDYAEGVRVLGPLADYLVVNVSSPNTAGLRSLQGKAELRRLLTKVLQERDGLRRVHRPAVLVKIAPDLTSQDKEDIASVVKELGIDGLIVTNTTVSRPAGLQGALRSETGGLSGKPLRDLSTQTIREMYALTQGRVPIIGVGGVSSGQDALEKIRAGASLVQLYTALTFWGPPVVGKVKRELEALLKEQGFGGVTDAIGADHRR
# [11] = Lipophilicity, logD of the compound at pH 7.4; type: physicochemical; settings: buffer
# [12] = test system: Plasmodium falciparum; experiment: Antiplasmodial activity against Plasmodium falciparum 3D7 infected in NSG mouse assessed as blood AUC level require to show 90% reduction in parasitemia administered orally on day 3 post-infection QD for 4 days and measured after 24 hrs post dose by LC-MS/MS analysis; type: functional, organism-based; settings: time 4.0 day
# [13] = Plasmodium falciparum, 3D7, Erythrocyte, 72 h
Compound,EC50 ([3]; rbc) [µM],IC50 [4] [µM],intrinsic clearance [5] [µL/min],IC50 [6] [µM],microsomal intrinsic clearance [8] [µL/min],Intrinsic clearance in rat liver microsomes (uL/min/mg protein) [9] [µL/min],"EC50 [3, 13] [µM]",IC50 [10] [µM],logD [11],solubility kinetic at 0.5 h [7] [µg/mL],further results
CCN(CC)CCCC(C)Nc1ccnc2cc(Cl)ccc12 (centres undefined) [CHLOROQUINE],–,–,–,–,–,–,–,–,–,–,ED90 [1]: 4.3 mg/kg; AUCED90 [2]: 3.1 µM.hr/day
Cc1cc(NC2CCc3cc(Cl)ccc3C2)n2nc(C(C)(F)F)nc2n1 (stereo in doubt; 8),0.42,1.34,–,–,–,–,–,–,–,–,–
Cc1cc(NC2CCc3cc(Br)ccc3C2)n2nc(C(C)(F)F)nc2n1 (stereo in doubt; 12),0.14,0.79,40,2.1,< 7,–,–,–,–,–,"Kinetic_solubility ([7]; buffer, pH 6.5, 0.5 h): 3.1 µg/mL"
Cc1cc(NC2CCc3cc(F)c(F)cc3C2)n2nc(C(C)(F)F)nc2n1 (stereo in doubt; 19),0.022,0.06,59,0.071,11,24,–,–,–,–,–
Cc1cc(NC2Cc3cc(Cl)c(Cl)cc3C2)n2nc(C(C)(F)F)nc2n1,–,0.14,–,–,–,–,0.58,–,–,–,–
Cc1cc(NC2Cc3c(F)ccc(F)c3C2)n2nc(C(C)(F)F)nc2n1,–,0.065,1500,0.15,33,1013,0.046,> 100,3.2,6.3,–
Cc1cc(NC2Cc3cc(F)c(F)cc3C2)n2nc(C(F)(F)F)nc2n1,–,0.12,–,–,–,–,0.15,–,–,–,–
Cc1cc(NC2CCc3ccc(Cl)cc3C2)n2nc(C(F)(F)F)nc2n1 (stereo in doubt; 25),1.5,1.1,–,–,–,–,–,–,–,–,–
Cc1cc(NC2CCc3ccccc3C2)n2nc(C(F)(F)F)nc2n1 (centres undefined),–,0.17,–,–,–,–,0.021,> 100,–,–,–
Cc1cc(NC2Cc3ccccc3C2)n2nc(C(C)(F)F)nc2n1,–,0.048,1004,–,24,245,0.036,> 100,3.1,25,–
Cc1cc(NC2CCc3ccc(Br)cc3C2)n2nc(C(C)(F)F)nc2n1 (stereo in doubt; 14),1.4,0.64,–,–,–,–,–,–,–,–,–
Cc1cc(NC2Cc3ccc(Cl)cc3C2)n2nc(C(C)(F)F)nc2n1 (centres undefined),–,0.085,43,–,10,54,0.12,–,3.5,6.3,–
Cc1cc(NC2CCc3ccccc3C2)n2nc(C(C)(F)F)nc2n1 (centres undefined),–,0.021,–,0.035,–,–,0.0028,–,–,–,–
Cc1cc(NC2CCc3cc(F)ccc3C2)n2nc(C(C)(F)F)nc2n1 (centres undefined),–,–,122,–,14,39,–,> 100,3.5,6.3,–
Cc1cc(N[C@@H]2CCc3ccc(Cl)cc3C2)n2nc(C(C)(F)F)nc2n1,–,0.79,–,–,–,–,2.8,> 100,–,–,–
Cc1cc(NC2CCc3cc(F)c(F)cc3C2)n2nc(C(C)(F)F)nc2n1 (stereo in doubt; 18),> 2.5,2.3,–,–,–,–,–,–,–,–,–
Cc1cc(NC2Cc3ccc(Br)cc3C2)n2nc(C(C)(F)F)nc2n1 (centres undefined),–,0.11,–,–,–,–,0.59,–,–,–,–
Cc1cc(NC2CCc3cc(Cl)ccc3C2)n2nc(C(C)(F)F)nc2n1 (stereo in doubt),–,–,–,–,–,–,–,–,–,–,AUCED90 [12]: > 23 µM.hr/day
Cc1cc(NC2CCc3ccc(Cl)cc3C2)n2nc(C(F)(F)F)nc2n1 (stereo in doubt; 24),0.033,0.015,24,–,9,–,–,–,4.1,1.6,–
COc1ccc2c(c1)CCC(Nc1cc(C)nc3nc(C(C)(F)F)nn13)C2 (centres undefined),–,0.14,–,0.22,–,–,0.017,> 100,–,–,–
COc1ccc2c(c1)CC(Nc1cc(C)nc3nc(C(C)(F)F)nn13)CC2 (stereo in doubt; 16),0.025,0.021,25,0.13,18,19,–,–,3.3,12.5,–
Cc1cc(NC2Cc3ccc(S(C)(=O)=O)cc3C2)n2nc(C(C)(F)F)nc2n1 (centres undefined),–,4,–,–,–,–,6.5,–,–,–,–
Cc1cc(NC2Cc3c(C)ccc(C)c3C2)n2nc(C(C)(F)F)nc2n1,–,0.014,1000,0.024,168,178,0.00039,> 100,3.8,6.3,–
Cc1cc(NC2CCc3cc(F)c(C(F)(F)F)cc3C2)n2nc(C(C)(F)F)nc2n1 (centres undefined),–,0.089,17,0.39,< 7,13,0.097,> 100,4,3.1,–
Cc1cc(NC2Cc3cccc(C(F)(F)F)c3C2)n2nc(C(C)(F)F)nc2n1 (centres undefined),–,0.066,119,0.28,30,61,0.0043,> 100,3.7,6.3,–
Cc1cc(NC2Cc3cccc(F)c3C2)n2nc(C(C)(F)F)nc2n1 (centres undefined),–,0.052,76,0.3,11,72,0.064,> 100,3.3,12.5,–
Cc1cc(NC2Cc3ccc(S(=O)(=O)N(C)C)cc3C2)n2nc(C(C)(F)F)nc2n1 (centres undefined),–,8,–,–,–,–,–,–,–,–,–
COc1ccc2c(c1)CC(Nc1cc(C)nc3nc(C(C)(F)F)nn13)CC2 (stereo in doubt; 17),0.64,1,–,–,–,–,–,–,–,–,–
Cc1cc(NC2CCc3cc(C(F)(F)F)c(F)cc3C2)n2nc(C(C)(F)F)nc2n1 (centres undefined),–,0.087,< 7,0.82,< 7,< 7,3.3,> 100,4.1,1.6,–
Cc1cc(NC2CCc3cc(F)ccc3C2)n2nc(C(F)(F)F)nc2n1 (centres undefined),–,0.077,–,0.28,–,–,0.066,–,–,–,–
